Values joined by “and” are separate entries in the source; they are usually repeats but may differ in a detail not shown here. Equal values may be shown once. Read-outs that look alike come from different tables or passages of the source.
Key:
CYP3A4 [1] = target: T1, CYP3A4 (Homo sapiens, UniProt P08684); experiment: Inhibition of BFC O-debenzylation activity of CYP3A4 in a reconstituted system with rat cytochrome P450 reductase
Description: (§1) Thermal denaturation experiments were conducted as previously described (Sevrioukova and Poulos, 2013 J. Med. Chem. 56: 3733-41) to compare ligand-dependent changes in CYP3A4 stability. The inhibitory potency of the investigated compounds on the 7-benzyloxy-4-(trifluoromethyl)coumarin (BFC) O-debenzylation activity of CYP3A4 was evaluated fluorometrically in a reconstituted system with rat cytochrome P450 reductase (CPR). The reaction was carried out at room temperature in 100 mM phosphate buffer, pH 7.4, containing catalase and superoxide dismutase (2 Units/ml each). A mixture of 1 μM CYP3A4 and 1 μM CPR was preincubated for 1 hour at room temperature and diluted by 20-fold with the assay buffer immediately before measurements. BFC (50 μM) and various concentrations of analogs were added to the protein mixture 2 minutes prior to the reaction initiation with 100 μM NADPH. Formation of 7-hydroxy-4-trifluoromethylcoumarin was followed in a Hitachi F100 fluorometer using λex=430 nm and λem=500 nm. IC50 values were derived from the [% activity] vs. [inhibitor] plots.

CYP3A4 [2] = target: T1, CYP3A4; experiment: Kinetics of ligand binding to CYP3A4 (stopped flow); conditions: for kfast (rate constant for the fast phase of the binding reaction): saturating ligand concentrations, room temperature, 2 μM CYP3A4
Description: Kinetics of ligand binding to CYP3A4 was monitored at room temperature in 50 mM phosphate, pH 7.4, in a SX.18MV stopped flow apparatus (Applied Photophysics,
UK) after mixing 2 μM CYP3A4 with various concentrations of ligands. […] Kinetic data were analyzed using the program IgorPro (WaveMetrics, Inc).

CYP3A4 [3] = target: T1, CYP3A4; experiment: Spectral binding titrations (equilibrium titration of CYP3A4, spectral dissociation constant); set-up: 4-histidine tag (C); made in house; host or cells: E. coli
Description: Left insets depict difference spectra between the ligand-free and inhibitor-bound forms. Right insets are plots of the absorbance change versus inhibitor concentration, based on which the Kd values were calculated.

CYP3A4 [4] = target: T1, CYP3A4; experiment: 442 nm peak in the absorbance spectrum of ligand-bound ferrous CYP3A4
CYP3A4 [5] = target: T1, CYP3A4; experiment: Thermal denaturation (ligand-dependent changes in CYP3A4 melting temperature); format: binding; set-up: 4-histidine tag (C); made in house; host or cells: E. coli
Description: as §1

CYP3A4 [6] = target: T1, CYP3A4
CYP3A4 [7] = target: T1, CYP3A4; remark: listed apart in the source
Description: as §1

[8] = read-out: IC50 (concentration required for half-maximal inactivation of recombinant CYP3A4), BFC 50 μM, 100 μM NADPH, room temperature, pH 7.4
[9] = 50 mM phosphate pH 7.4, 20% glycerol, 1 mM dithiothreitol, single site, read-out: Ks (spectral dissociation constant)

T1 sequence (P08684 with tags, fused parts or gaps): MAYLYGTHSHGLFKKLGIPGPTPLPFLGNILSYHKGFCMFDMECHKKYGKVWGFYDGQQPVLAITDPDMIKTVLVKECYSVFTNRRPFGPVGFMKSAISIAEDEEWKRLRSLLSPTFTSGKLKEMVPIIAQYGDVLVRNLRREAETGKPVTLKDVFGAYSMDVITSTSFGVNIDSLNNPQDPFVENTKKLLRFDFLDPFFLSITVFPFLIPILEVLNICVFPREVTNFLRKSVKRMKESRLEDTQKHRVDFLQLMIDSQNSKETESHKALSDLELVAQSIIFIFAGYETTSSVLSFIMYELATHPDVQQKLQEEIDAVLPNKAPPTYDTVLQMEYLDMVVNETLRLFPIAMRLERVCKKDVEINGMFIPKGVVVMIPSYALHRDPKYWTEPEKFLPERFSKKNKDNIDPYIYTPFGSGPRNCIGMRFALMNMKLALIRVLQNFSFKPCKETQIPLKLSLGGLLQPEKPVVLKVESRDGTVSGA

| SMILES | IC50 (CYP3A4 [1]; [8]) | kfast (rate constant for the fast phase of the binding reaction) (CYP3A4 [2]) | Kd (CYP3A4 [3]; [9]) [µM] | 442 nm absorption of the ferrous ligand-bound form of CYP3A4 (CYP3A4 [4]) | ΔTm (ligand-dependent changes in the melting temperature of CYP3A4) (CYP3A4 [5]) [°C] | further results |
| --- | --- | --- | --- | --- | --- | --- |
| CC(C)(C)OC(=O)NCCCCCC(=O)NCc1cccnc1 [Compound 4] | 75 µM | 20 s⁻¹ and 20 ± 2 s⁻¹ | 105 ± 10 | considerably smaller | −0.2 | – |
| c1ccncc1 [pyridine, reference compound] | – | 0.5 ± 0.1 s⁻¹ | 4500 ± 400 | undetectable | 0 | IC50 (CYP3A4 [1]; IC50 (concentration required for half-maximal inactivation of recombinant CYP3A4), BFC 50 μM, 100 μM NADPH, room temperature, pH 7.4): 4000 ± 500 µM; IC50 (CYP3A4 [1]; IC50 on the BFC debenzylation activity of CYP3A4, one range given for pyridine, aminoethylpyridine and 5 together): 1000 to 4000 µM |
| CC(C)(C)OC(=O)N[C@H](CSCCC(=O)NCc1cccnc1)Cc1ccccc1 [Compound 15a] | 0.5 µM and 0.52 µM | 1.7 s⁻¹ and 1.7 ± 0.2 s⁻¹ | 0.9 ± 0.1 | pronounced | −1 ± 0.2 | – |
| NCCc1ccccn1 [aminoethylpyridine, reference compound] | 5000 ± 600 µM | 0.6 ± 0.1 s⁻¹ | 2500 ± 200 | undetectable | −0.1 | – |
| NCCCCCC(=O)NCc1cccnc1 [Compound 5] | 1000 ± 150 µM | – | – | – | −0.2 | rate constants of monophasic binding reaction (CYP3A4 [2]): 0.5 to 0.8 s⁻¹; 442 nm absorption of the ferrous ligand-bound form of CYP3A4 (CYP3A4 [6]): undetectable; IC50 (CYP3A4 [7]): 1000 to 4000 µM; Kd (CYP3A4 [3]; two binding sites, read-out: KS, second of two binding sites): 4400 µM; Kd (CYP3A4 [3]; values derived from the two site saturation fit to a titration curve, two binding sites, read-out: Ks (spectral dissociation constant), two site saturation fit): 10 µM |
| CC(C)(C)OC(=O)N[C@H](CSCCC(=O)NCc1cccnc1)CC1CCCCC1 [Compound 11] | 30 µM | 4.0 ± 0.2 s⁻¹ | 10 ± 1 | considerably smaller | −2 ± 0.4 | – |
| CC(C)(C)OC(=O)N[C@H](CSCCC(=O)NCc1cccnc1)Cc1c[nH]c2ccccc12 [Compound 15b] | 0.2 µM and 0.21 µM | 8.0 ± 1.5 s⁻¹ | 0.5 ± 0.1 | pronounced | 0.2 | change of CYP3A4 Tm / thermal stability upon complex formation (CYP3A4 [5]): slightly increased |
| CC(C)(C)OC(=O)N[C@H](CN[C@@H](Cc1ccccc1)C(=O)NCCc1cccnc1)Cc1ccccc1 [Compound 01ERS089, N-BOC-Trp-S-N-Ph-Cys-CONH-Et-Pyr] | – | – | – | – | – | IC50 (CYP3A4 [1]): 0.39 µM; Kd (CYP3A4 [3]; calculated from plots of absorbance change versus inhibitor concentration (FIG. 37), read-out: Kd (binding affinity to CYP3A4)): 0.13 µM |

Source: patent US20190038611A1, “Novel CYP34A-Specific Inhibitors and Methods of Using Same” (THE REGENTS OF THE UNIVERSITY OF CALIFORNIA, priority 2015, published 2019)
